Test results taken from patent US10456407B2, “Combination therapy for treating cancer” (Epizyme, Inc., priority 2015, dated 2019).

Test system: WSU-DLCL2 cells
Experiment: RT2 Glucocorticoid signaling PCR array, WSU-DLCL2 (WSU) cell line (Table 4c)
Format: cell-based

## CCN(c1cc(-c2ccc(CN3CCOCC3)cc2)cc(C(=O)NCc2c(C)cc(C)[nH]c2=O)c1C)C1CCOCC1 [Compound 44]
Gene ACTB
  Ct Values, ACTB: 15.450
  ΔCT (B2M), ACTB: −4.235
Gene ADARB1
  Ct Values, ADARB1: 25.386
  ΔCT (B2M), ADARB1: 5.701
Gene ADARB1, compared to DMSO
  ΔΔCT, ADARB1: −1.165
Gene AFF1
  Ct Values, AFF1: 27.925
  ΔCT (B2M), AFF1: 8.240
Gene AFF1, compared to DMSO
  ΔΔCT, AFF1: −0.413
Gene AK2
  Ct Values, AK2: 21.365
  ΔCT (B2M), AK2: 1.680
Gene AK2, compared to DMSO
  ΔΔCT, AK2: 0.486
Gene AMPD3
  Ct Values, AMPD3: 27.162
  ΔCT (B2M), AMPD3: 7.477
Gene AMPD3, compared to DMSO
  ΔΔCT, AMPD3: −1.540
Gene ANGPTL4
  Ct Values, ANGPTL4: 30.487
  ΔCT (B2M), ANGPTL4: 10.802
Gene ANGPTL4, compared to DMSO
  ΔΔCT, ANGPTL4: −1.192
Gene ANXA4
  Ct Values, ANXA4: 24.659
  ΔCT (B2M), ANXA4: 4.974
Gene ANXA4, compared to DMSO
  ΔΔCT, ANXA4: −3.312
Gene AQP1
  Ct Values, AQP1: 33.645
  ΔCT (B2M), AQP1: 13.960
Gene ARID68
  Ct Values, ARID68: 26.126
  ΔCT (B2M), ARID68: 6.441
Gene ARID68, compared to DMSO
  ΔΔCT, ARID68: −0.353
Gene ASPH
  Ct Values, ASPH: 22.415
Gene ASPH, compared to DMSO
  ΔΔCT, ASPH: −0.105
Gene ATF4
  Ct Values, ATF4: 20.470
  ΔCT (B2M), ATF4: 0.785
Gene ATF4, compared to DMSO
  ΔΔCT, ATF4: 0.361
Gene B2M (normaliser)
  Ct Values, B2M: 19.685
  ΔCT (B2M), B2M: 0.000
Gene BCL6
  Ct Values, BCL6: 20.795
  ΔCT (B2M), BCL6: 1.110
Gene BCL6, compared to DMSO
  ΔΔCT, BCL6: −0.394
Gene CEBPA
  Ct Values, CEBPA: 27.014
  ΔCT (B2M), CEBPA: 7.329
Gene CEBPA, compared to DMSO
  ΔΔCT, CEBPA: −1.659
Gene CEBPB
  Ct Values, CEBPB: 26.770
  ΔCT (B2M), CEBPB: 7.085
Gene CEBPB, compared to DMSO
  ΔΔCT, CEBPB: 1.269
Gene CREB1
  Ct Values, CREB1: 23.413
  ΔCT (B2M), CREB1: 3.728
Gene CREB1, compared to DMSO
  ΔΔCT, CREB1: 0.008
Gene CREB3
  Ct Values, CREB3: 25.459
  ΔCT (B2M), CREB3: 5.774
Gene CREB3, compared to DMSO
  ΔΔCT, CREB3: −0.085
Gene CREB3L4
  Ct Values, CREB3L4: 24.392
  ΔCT (B2M), CREB3L4: 4.707
Gene CREB3L4, compared to DMSO
  ΔΔCT, CREB3L4: −0.915
Gene CYB561
  Ct Values, CYB561: 31.478
  ΔCT (B2M), CYB561: 11.793
Gene CYB561, compared to DMSO
  ΔΔCT, CYB561: −5.631
Gene DDIT4
  Ct Values, DDIT4: 24.404
  ΔCT (B2M), DDIT4: 4.719
Gene DDIT4, compared to DMSO
  ΔΔCT, DDIT4: −0.060
Gene DUSP1
  Ct Values, DUSP1: 27.284
  ΔCT (B2M), DUSP1: 7.599
Gene DUSP1, compared to DMSO
  ΔΔCT, DUSP1: 1.370
Gene EDN1
  Ct Values, EDN1: 26.349
  ΔCT (B2M), EDN1: 6.664
Gene EHD3
  Ct Values, EHD3: 24.270
  ΔCT (B2M), EHD3: 4.585
Gene EHD3, compared to DMSO
  ΔΔCT, EHD3: −5.639
Gene ERRFI1
  Ct Values, ERRFI1: 32.771
  ΔCT (B2M), ERRFI1: 13.086
Gene FK8PS
  Ct Values, FK8PS: 23.267
  ΔCT (B2M), FK8PS: 3.582
Gene FK8PS, compared to DMSO
  ΔΔCT, FK8PS: 0.159
Gene FOSL2
  Ct Values, FOSL2: 34.140
  ΔCT (B2M), FOSL2: 14.455
Gene FOSL2, compared to DMSO
  ΔΔCT, FOSL2: 2.796
Gene GAPDH
  Ct Values, GAPDH: 17.275
  ΔCT (B2M), GAPDH: −2.410
Gene GDPD1
  Ct Values, GDPD1: 27.494
  ΔCT (B2M), GDPD1: 7.809
Gene GDPD1, compared to DMSO
  ΔΔCT, GDPD1: −1.112
Gene GHRHR
  Ct Values, GHRHR: 39.957
  ΔCT (B2M), GHRHR: 20.272
Gene GHRHR, compared to DMSO
  ΔΔCT, GHRHR: 5.086
Gene GLUL
  Ct Values, GLUL: 28.395
  ΔCT (B2M), GLUL: 8.710
Gene GOT1
  Ct Values, GOT1: 23.827
  ΔCT (B2M), GOT1: 4.142
Gene GOT1, compared to DMSO
  ΔΔCT, GOT1: 0.708
Gene H6PD
  Ct Values, H6PD: 25.976
  ΔCT (B2M), H6PD: 6.291
Gene H6PD, compared to DMSO
  ΔΔCT, H6PD: −0.619
Gene HNRPLL
  Ct Values, HNRPLL: 24.170
  ΔCT (B2M), HNRPLL: 4.485
Gene HNRPLL, compared to DMSO
  ΔΔCT, HNRPLL: −0.037
Gene HPRT1
  Ct Values, HPRT1: 22.793
  ΔCT (B2M), HPRT1: 3.108
Gene IL1RN
  Ct Values, IL1RN: 28.388
  ΔCT (B2M), IL1RN: 8.703
Gene IL6R
  Ct Values, IL6R: 33.814
  ΔCT (B2M), IL6R: 14.129
Gene IL10
  Ct Values, IL10: 34.229
  ΔCT (B2M), IL10: 14.544
Gene KLF9
  Ct Values, KLF9: 28.881
  ΔCT (B2M), KLF9: 9.196
Gene KLF9, compared to DMSO
  ΔΔCT, KLF9: −2.195
Gene KLF13
  Ct Values, KLF13: 23.800
  ΔCT (B2M), KLF13: 4.115
Gene KLF13, compared to DMSO
  ΔΔCT, KLF13: −0.974
Gene LOX
  Ct Values, LOX: 34.399
  ΔCT (B2M), LOX: 14.714
Gene LOX, compared to DMSO
  ΔΔCT, LOX: −0.102
